Values after ≈ are worked out from the molar mass of the structure shown.
Assays:
Format in all cases: functional
Escherichia coli [1] = test: Antibacterial activity against Escherichia coli ATCC 8739 at 200 ug/ml after 24 hrs by agar well diffusion method; conditions: ATCC 8739, 24 h, read-out: DIZ
Fusarium oxysporum [2] = test: Antifungal activity against Fusarium oxysporum at 200 ug/ml after 72 hrs by agar well diffusion method; conditions: read-out: DIZ
Klebsiella pneumoniae [3] = test: Antibacterial activity against Klebsiella pneumoniae at 50 ug/ml after 24 hrs by agar well diffusion method; conditions: read-out: DIZ
Rhizoctonia solani [4] = test: Antifungal activity against Rhizoctonia solani at 200 ug/ml after 72 hrs by agar well diffusion method; conditions: read-out: DIZ
Staphylococcus aureus [5] = test: Antibacterial activity against Staphylococcus aureus ATCC 6538 at 50 ug/ml after 24 hrs by agar well diffusion method; conditions: ATCC 6538, 24 h, read-out: DIZ
Fusarium oxysporum [6] = test: Antifungal activity against Fusarium oxysporum at 100 ug/ml after 72 hrs by agar well diffusion method; conditions: read-out: DIZ
Staphylococcus aureus [7] = test: Antibacterial activity against Staphylococcus aureus ATCC 6538 at 500 ug/ml after 24 hrs by agar well diffusion method; conditions: ATCC 6538, 24 h, read-out: DIZ
Escherichia coli [8] = test: Antibacterial activity against Escherichia coli ATCC 8739 at 300 ug/ml after 24 hrs by agar well diffusion method; conditions: ATCC 8739, 24 h, read-out: DIZ
Rhizoctonia solani [9] = test: Antifungal activity against Rhizoctonia solani at 100 ug/ml after 72 hrs by agar well diffusion method; conditions: read-out: DIZ
Klebsiella pneumoniae [10] = test: Antibacterial activity against Klebsiella pneumoniae at 300 ug/ml after 24 hrs by agar well diffusion method; conditions: read-out: DIZ
Aspergillus niger [11] = test: Antifungal activity against Aspergillus niger at 200 ug/ml after 72 hrs by agar well diffusion method; conditions: read-out: DIZ
Staphylococcus aureus [12] = test: Antibacterial activity against Staphylococcus aureus ATCC 6538 at 300 ug/ml after 24 hrs by agar well diffusion method; conditions: ATCC 6538, 24 h, read-out: DIZ
Staphylococcus aureus [13] = test: Antibacterial activity against Staphylococcus aureus ATCC 6538 after 24 hrs by agar well diffusion method; conditions: ATCC 6538, 24 h
Escherichia coli [14] = test: Antibacterial activity against Escherichia coli ATCC 8739 at 50 ug/ml after 24 hrs by agar well diffusion method; conditions: ATCC 8739, 24 h, read-out: DIZ
Bacillus subtilis [15] = test: Antibacterial activity against Bacillus subtilis after 24 hrs by agar well diffusion method
Rhizoctonia solani [16] = test: Antifungal activity against Rhizoctonia solani after 72 hrs by agar well diffusion method
Aspergillus niger [17] = test: Antifungal activity against Aspergillus niger at 100 ug/ml after 72 hrs by agar well diffusion method; conditions: read-out: DIZ
Staphylococcus aureus [18] = test: Antibacterial activity against Staphylococcus aureus ATCC 6538 at 100 ug/ml after 24 hrs by agar well diffusion method; conditions: ATCC 6538, 24 h, read-out: DIZ
Rhizoctonia solani [19] = test: Antifungal activity against Rhizoctonia solani at 500 ug/ml after 72 hrs by agar well diffusion method; conditions: read-out: DIZ
Bacillus subtilis [20] = test: Antibacterial activity against Bacillus subtilis at 50 ug/ml after 24 hrs by agar well diffusion method; conditions: read-out: DIZ
Aspergillus flavus [21] = test: Antifungal activity against Aspergillus flavus at 50 ug/ml after 72 hrs by agar well diffusion method; conditions: read-out: DIZ
Aspergillus flavus [22] = test: Antifungal activity against Aspergillus flavus at 200 ug/ml after 72 hrs by agar well diffusion method; conditions: read-out: DIZ
Bacillus subtilis [23] = test: Antibacterial activity against Bacillus subtilis at 500 ug/ml after 24 hrs by agar well diffusion method; conditions: read-out: DIZ
Aspergillus niger [24] = test: Antifungal activity against Aspergillus niger at 500 ug/ml after 72 hrs by agar well diffusion method; conditions: read-out: DIZ
Fusarium oxysporum [25] = test: Antifungal activity against Fusarium oxysporum at 300 ug/ml after 72 hrs by agar well diffusion method; conditions: read-out: DIZ
Staphylococcus aureus [26] = test: Antibacterial activity against Staphylococcus aureus ATCC 6538 at 200 ug/ml after 24 hrs by agar well diffusion method; conditions: ATCC 6538, 24 h, read-out: DIZ
Bacillus subtilis [27] = test: Antibacterial activity against Bacillus subtilis at 200 ug/ml after 24 hrs by agar well diffusion method; conditions: read-out: DIZ
Fusarium oxysporum [28] = test: Antifungal activity against Fusarium oxysporum at 500 ug/ml after 72 hrs by agar well diffusion method; conditions: read-out: DIZ
Aspergillus niger [29] = test: Antifungal activity against Aspergillus niger at 50 ug/ml after 72 hrs by agar well diffusion method; conditions: read-out: DIZ
Escherichia coli [30] = test: Antibacterial activity against Escherichia coli ATCC 8739 after 24 hrs by agar well diffusion method; conditions: ATCC 8739, 24 h
Aspergillus niger [31] = test: Antifungal activity against Aspergillus niger after 72 hrs by agar well diffusion method
Rhizoctonia solani [32] = test: Antifungal activity against Rhizoctonia solani at 50 ug/ml after 72 hrs by agar well diffusion method; conditions: read-out: DIZ
Fusarium oxysporum [33] = test: Antifungal activity against Fusarium oxysporum at 50 ug/ml after 72 hrs by agar well diffusion method; conditions: read-out: DIZ
Fusarium oxysporum [34] = test: Antifungal activity against Fusarium oxysporum after 72 hrs by agar well diffusion method
Aspergillus flavus [35] = test: Antifungal activity against Aspergillus flavus after 72 hrs by agar well diffusion method
Aspergillus flavus [36] = test: Antifungal activity against Aspergillus flavus at 100 ug/ml after 72 hrs by agar well diffusion method; conditions: read-out: DIZ
Aspergillus flavus [37] = test: Antifungal activity against Aspergillus flavus at 300 ug/ml after 72 hrs by agar well diffusion method; conditions: read-out: DIZ
Bacillus subtilis [38] = test: Antibacterial activity against Bacillus subtilis at 300 ug/ml after 24 hrs by agar well diffusion method; conditions: read-out: DIZ
Aspergillus flavus [39] = test: Antifungal activity against Aspergillus flavus at 500 ug/ml after 72 hrs by agar well diffusion method; conditions: read-out: DIZ
Klebsiella pneumoniae [40] = test: Antibacterial activity against Klebsiella pneumoniae at 500 ug/ml after 24 hrs by agar well diffusion method; conditions: read-out: DIZ
Klebsiella pneumoniae [41] = test: Antibacterial activity against Klebsiella pneumoniae after 24 hrs by agar well diffusion method
Escherichia coli [42] = test: Antibacterial activity against Escherichia coli ATCC 8739 at 100 ug/ml after 24 hrs by agar well diffusion method; conditions: ATCC 8739, 24 h, read-out: DIZ
Klebsiella pneumoniae [43] = test: Antibacterial activity against Klebsiella pneumoniae at 100 ug/ml after 24 hrs by agar well diffusion method; conditions: read-out: DIZ
Klebsiella pneumoniae [44] = test: Antibacterial activity against Klebsiella pneumoniae at 200 ug/ml after 24 hrs by agar well diffusion method; conditions: read-out: DIZ
Rhizoctonia solani [45] = test: Antifungal activity against Rhizoctonia solani at 300 ug/ml after 72 hrs by agar well diffusion method; conditions: read-out: DIZ
Aspergillus niger [46] = test: Antifungal activity against Aspergillus niger at 300 ug/ml after 72 hrs by agar well diffusion method; conditions: read-out: DIZ
Bacillus subtilis [47] = test: Antibacterial activity against Bacillus subtilis at 100 ug/ml after 24 hrs by agar well diffusion method; conditions: read-out: DIZ
Escherichia coli [48] = test: Antibacterial activity against Escherichia coli ATCC 8739 at 500 ug/ml after 24 hrs by agar well diffusion method; conditions: ATCC 8739, 24 h, read-out: DIZ

Cn1cc(C=C2C(=O)OC(C)(C)OC2=O)c2ccccc21
zone of inhibition at 200 µg/mL (Escherichia coli [1]): 16 mm | zone of inhibition at 200 µg/mL (Fusarium oxysporum [2]): 16 mm | zone of inhibition at 50 µg/mL (Klebsiella pneumoniae [3]): 9 mm | zone of inhibition at 200 µg/mL (Rhizoctonia solani [4]): 16 mm | zone of inhibition at 50 µg/mL (Staphylococcus aureus [5]): 6 mm | zone of inhibition at 100 µg/mL (Fusarium oxysporum [6]): 12 mm | zone of inhibition at 500 µg/mL (Staphylococcus aureus [7]): 25 mm | zone of inhibition at 300 µg/mL (Escherichia coli [8]): 20 mm | zone of inhibition at 100 µg/mL (Rhizoctonia solani [9]): 12 mm | zone of inhibition at 300 µg/mL (Klebsiella pneumoniae [10]): 23 mm | zone of inhibition at 200 µg/mL (Aspergillus niger [11]): 14 mm | zone of inhibition at 300 µg/mL (Staphylococcus aureus [12]): 18 mm | MIC (Staphylococcus aureus [13]): 25 µg/mL (≈ 87.6 µM) | zone of inhibition at 50 µg/mL (Escherichia coli [14]): 8 mm | MIC (Bacillus subtilis [15]): 30 µg/mL (≈ 105 µM) | MIC (Rhizoctonia solani [16]): 35 µg/mL (≈ 123 µM) | zone of inhibition at 100 µg/mL (Aspergillus niger [17]): 10 mm | zone of inhibition at 100 µg/mL (Staphylococcus aureus [18]): 10 mm | zone of inhibition at 500 µg/mL (Rhizoctonia solani [19]): 29 mm | zone of inhibition at 50 µg/mL (Bacillus subtilis [20]): 4 mm | zone of inhibition at 50 µg/mL (Aspergillus flavus [21]): 4 mm | zone of inhibition at 200 µg/mL (Aspergillus flavus [22]): 12 mm | zone of inhibition at 500 µg/mL (Bacillus subtilis [23]): 23 mm | zone of inhibition at 500 µg/mL (Aspergillus niger [24]): 25 mm | zone of inhibition at 300 µg/mL (Fusarium oxysporum [25]): 21 mm | zone of inhibition at 200 µg/mL (Staphylococcus aureus [26]): 14 mm | zone of inhibition at 200 µg/mL (Bacillus subtilis [27]): 12 mm | zone of inhibition at 500 µg/mL (Fusarium oxysporum [28]): 29 mm | zone of inhibition at 50 µg/mL (Aspergillus niger [29]): 6 mm | MIC (Escherichia coli [30]): 15 µg/mL (≈ 52.6 µM) | MIC (Aspergillus niger [31]): 40 µg/mL (≈ 140 µM) | zone of inhibition at 50 µg/mL (Rhizoctonia solani [32]): 7 mm | zone of inhibition at 50 µg/mL (Fusarium oxysporum [33]): 7 mm | MIC (Fusarium oxysporum [34]): 35 µg/mL (≈ 123 µM) | MIC (Aspergillus flavus [35]): 40 µg/mL (≈ 140 µM) | zone of inhibition at 100 µg/mL (Aspergillus flavus [36]): 9 mm | zone of inhibition at 300 µg/mL (Aspergillus flavus [37]): 15 mm | zone of inhibition at 300 µg/mL (Bacillus subtilis [38]): 15 mm | zone of inhibition at 500 µg/mL (Aspergillus flavus [39]): 23 mm | zone of inhibition at 500 µg/mL (Klebsiella pneumoniae [40]): 31 mm | MIC (Klebsiella pneumoniae [41]): 15 µg/mL (≈ 52.6 µM) | zone of inhibition at 100 µg/mL (Escherichia coli [42]): 13 mm | zone of inhibition at 100 µg/mL (Klebsiella pneumoniae [43]): 14 mm | zone of inhibition at 200 µg/mL (Klebsiella pneumoniae [44]): 18 mm | zone of inhibition at 300 µg/mL (Rhizoctonia solani [45]): 21 mm | zone of inhibition at 300 µg/mL (Aspergillus niger [46]): 18 mm | zone of inhibition at 100 µg/mL (Bacillus subtilis [47]): 9 mm | zone of inhibition at 500 µg/mL (Escherichia coli [48]): 30 mm

— ChEMBL document CHEMBL2429768, “Eco-friendly synthesis and antimicrobial activities of substituted-5-(1H-indol-3-yl)methylene)-2,2-dimethyl-1,3-dioxane-4,6-dione derivatives” (2013)
